Data taken from patent publication US9346799B2, “Useful combinations of monobactam antibiotics with beta-lactamase inhibitors” (Basilea Pharmaceutica AG, priority 2005, dated 2016).

How the values were obtained:
Assay in all cases: MIC by broth microdilution (NCCLS M7-A5)
[1] = tested on: Enterobacter aerogenes Zayakosky; settings: E. aerogenes Zayakosky
[2] = tested on: Serratia marcescens S6
[3] = tested on: Pseudomonas aeruginosa 1973E
[4] = tested on: Enterobacter cloacae MRW; settings: E. cloacae MRW
[5] = tested on: Pseudomonas aeruginosa MK1184
[6] = tested on: Enterobacter cloacae ATCC13047/CRO-R; settings: E. cloacae ATCC13047/CRO-R
[7] = tested on: Klebsiella pneumoniae CF104
[8] = tested on: Enterobacter cloacae M4018; settings: E. cloacae M4018
[9] = tested on: Enterobacter aerogenes B1; settings: E. aerogenes B1
[10] = tested on: Enterobacter cloacae B1102; settings: E. cloacae B1102
[11] = tested on: Acinetobacter sp. J2
[12] = tested on: Enterobacter cloacae P99
[13] = tested on: Stenotrophomonas malthophilia 1AC736; settings: Stenotrophomonas maltophilia 1AC736
[14] = + compound 323 and clavulanate, 4 mg/L each
[15] = + 102 + clavulanate, 4 mg/L each
[16] = + 103 + clavulanate, 4 mg/L each
[17] = + 111 + clavulanate, 4 mg/L each
[18] = + 202 + clavulanate, 4 mg/L each
[19] = + 206 + clavulanate, 4 mg/L each
[20] = + 323 + clavulanate, 4 mg/L each
[21] = + 324 + clavulanate, 4 mg/L each

Compound: CC1C(NC(=O)C(=NOCc2cc(=O)c(O)cn2O)c2csc(N)n2)C(=O)N1S(=O)(=O)O (centres unmarked) [Compound 1]
- Minimal Inhibitory Concentration of antibiotic ([1]; + clavulanate at fixed 4 mg/L): >32 mg/L
- Minimal Inhibitory Concentration of antibiotic ([1]; + compound 206 at fixed 4 mg/L): >32 mg/L
- Minimal Inhibitory Concentration of antibiotic [1, 14]: 16 mg/L
- Minimal Inhibitory Concentration of antibiotic ([1]; + compound 501 at fixed 4 mg/L): >32 mg/L
- Minimal Inhibitory Concentration of antibiotic ([1]; antibiotic alone): >32 mg/L
- MIC of antibiotic [2, 15]: 0.25 µg/mL
- MIC of antibiotic ([2]; + 102 + sulbactam, 4 mg/L each): 0.5 µg/mL
- MIC of antibiotic [2, 16]: 0.25 µg/mL
- MIC of antibiotic [2, 17]: 0.25 µg/mL
- MIC of antibiotic [2, 18]: 0.5 µg/mL
- MIC of antibiotic [2, 19]: 4 µg/mL
- MIC of antibiotic [2, 20]: 0.25 µg/mL
- MIC of antibiotic ([2]; + 323 + sulbactam, 4 mg/L each): 0.5 µg/mL
- MIC of antibiotic [2, 21]: 1 µg/mL
- MIC of antibiotic ([2]; + 501 4 mg/L): 4 µg/mL
- MIC of antibiotic ([2]; + clavulanate 4 mg/L): 4 µg/mL
- MIC of antibiotic ([2]; antibiotic alone): >32 µg/mL
- MIC of antibiotic ([2]; antibiotic alone, no inhibitor): 1 µg/mL
- MIC of antibiotic [3, 15]: 2 µg/mL
- MIC of antibiotic ([3]; + 102 + sulbactam, 4 mg/L each): 4 µg/mL
- MIC of antibiotic [3, 16]: 4 µg/mL
- MIC of antibiotic [3, 17]: 4 µg/mL
- MIC of antibiotic [3, 18]: 4 µg/mL
- MIC of antibiotic [3, 19]: 4 µg/mL
- MIC of antibiotic [3, 20]: 8 µg/mL
- MIC of antibiotic ([3]; + 323 + sulbactam, 4 mg/L each): 4 µg/mL
- MIC of antibiotic [3, 21]: 8 µg/mL
- MIC of antibiotic ([3]; + 501 4 mg/L): 8 µg/mL
- MIC of antibiotic ([3]; + clavulanate 4 mg/L): 8 µg/mL
- MIC of antibiotic ([3]; antibiotic alone): 16 µg/mL
- Minimal Inhibitory Concentration of antibiotic ([4]; + clavulanate at fixed 4 mg/L): 32 mg/L
- Minimal Inhibitory Concentration of antibiotic ([4]; + compound 206 at fixed 4 mg/L): 16 mg/L
- Minimal Inhibitory Concentration of antibiotic [4, 14]: 4 mg/L
- Minimal Inhibitory Concentration of antibiotic ([4]; + compound 501 at fixed 4 mg/L): 32 mg/L
- Minimal Inhibitory Concentration of antibiotic ([4]; antibiotic alone): >32 mg/L
- MIC of antibiotic [5, 15]: 4 µg/mL
- MIC of antibiotic ([5]; + 102 + sulbactam, 4 mg/L each): 32 µg/mL
- MIC of antibiotic [5, 16]: 8 µg/mL
- MIC of antibiotic [5, 17]: 8 µg/mL
- MIC of antibiotic [5, 18]: 8 µg/mL
- MIC of antibiotic [5, 19]: >32 µg/mL
- MIC of antibiotic [5, 20]: 16 µg/mL
- MIC of antibiotic ([5]; + 323 + sulbactam, 4 mg/L each): 4 µg/mL
- MIC of antibiotic [5, 21]: 8 µg/mL
- MIC of antibiotic ([5]; + 501 4 mg/L): >32 µg/mL
- MIC of antibiotic ([5]; + clavulanate 4 mg/L): >32 µg/mL
- MIC of antibiotic ([5]; antibiotic alone): >32 µg/mL
- Minimal Inhibitory Concentration of antibiotic ([6]; + clavulanate at fixed 4 mg/L): >32 mg/L
- Minimal Inhibitory Concentration of antibiotic ([6]; + compound 206 at fixed 4 mg/L): >32 mg/L
- Minimal Inhibitory Concentration of antibiotic [6, 14]: 8 mg/L
- Minimal Inhibitory Concentration of antibiotic ([6]; + compound 501 at fixed 4 mg/L): >32 mg/L
- Minimal Inhibitory Concentration of antibiotic ([6]; antibiotic alone): >32 mg/L
- MIC of antibiotic [7, 15]: 1 µg/mL
- MIC of antibiotic ([7]; + 102 + sulbactam, 4 mg/L each): 1 µg/mL
- MIC of antibiotic [7, 16]: 0.5 µg/mL
- MIC of antibiotic [7, 17]: <0.06 µg/mL
- MIC of antibiotic [7, 18]: 2 µg/mL
- MIC of antibiotic [7, 19]: 0.25 µg/mL
- MIC of antibiotic [7, 20]: 2 µg/mL
- MIC of antibiotic ([7]; + 323 + sulbactam, 4 mg/L each): 1 µg/mL
- MIC of antibiotic [7, 21]: 1 µg/mL
- MIC of antibiotic ([7]; + 501 4 mg/L): 0.5 µg/mL
- MIC of antibiotic ([7]; + clavulanate 4 mg/L): 0.5 µg/mL
- MIC of antibiotic ([7]; antibiotic alone): >32 µg/mL
- Minimal Inhibitory Concentration of antibiotic ([8]; + clavulanate at fixed 4 mg/L): >32 mg/L
- Minimal Inhibitory Concentration of antibiotic ([8]; + compound 206 at fixed 4 mg/L): 8 mg/L
- Minimal Inhibitory Concentration of antibiotic [8, 14]: 2 mg/L
- Minimal Inhibitory Concentration of antibiotic ([8]; + compound 501 at fixed 4 mg/L): 16 mg/L
- Minimal Inhibitory Concentration of antibiotic ([8]; antibiotic alone): 32 mg/L
- Minimal Inhibitory Concentration of antibiotic ([9]; + clavulanate at fixed 4 mg/L): >32 mg/L
- Minimal Inhibitory Concentration of antibiotic ([9]; + compound 206 at fixed 4 mg/L): 16 mg/L
- Minimal Inhibitory Concentration of antibiotic [9, 14]: 4 mg/L
- Minimal Inhibitory Concentration of antibiotic ([9]; + compound 501 at fixed 4 mg/L): >32 mg/L
- Minimal Inhibitory Concentration of antibiotic ([9]; antibiotic alone): 32 mg/L
- Minimal Inhibitory Concentration of antibiotic ([10]; + clavulanate at fixed 4 mg/L): 32 mg/L
- Minimal Inhibitory Concentration of antibiotic ([10]; + compound 206 at fixed 4 mg/L): 16 mg/L
- Minimal Inhibitory Concentration of antibiotic [10, 14]: 8 mg/L
- Minimal Inhibitory Concentration of antibiotic ([10]; + compound 501 at fixed 4 mg/L): 16 mg/L
- Minimal Inhibitory Concentration of antibiotic ([10]; antibiotic alone): >32 mg/L
- MIC of antibiotic ([11]; Acinetobacter baumannii J2, + 102 + clavulanate, 4 mg/L each): 4 µg/mL
- MIC of antibiotic ([11]; Acinetobacter baumannii J2, + 102 + sulbactam, 4 mg/L each): 2 µg/mL
- MIC of antibiotic ([11]; Acinetobacter baumannii J2, + 103 + clavulanate, 4 mg/L each): 8 µg/mL
- MIC of antibiotic ([11]; Acinetobacter baumannii J2, + 111 + clavulanate, 4 mg/L each): 4 µg/mL
- MIC of antibiotic ([11]; Acinetobacter baumannii J2, + 202 + clavulanate, 4 mg/L each): 4 µg/mL
- MIC of antibiotic ([11]; Acinetobacter baumannii J2, + 206 + clavulanate, 4 mg/L each): 4 µg/mL
- MIC of antibiotic ([11]; Acinetobacter baumannii J2, + 323 + clavulanate, 4 mg/L each): 16 µg/mL
- MIC of antibiotic ([11]; Acinetobacter baumannii J2, + 323 + sulbactam, 4 mg/L each): 1 µg/mL
- MIC of antibiotic ([11]; Acinetobacter baumannii J2, + 324 + clavulanate, 4 mg/L each): 32 µg/mL
- MIC of antibiotic ([11]; Acinetobacter baumannii J2, + 501 4 mg/L): <0.06 µg/mL
- MIC of antibiotic ([11]; Acinetobacter baumannii J2, + clavulanate 4 mg/L): >32 µg/mL
- MIC of antibiotic ([11]; Acinetobacter baumannii J2, antibiotic alone): >32 µg/mL
- MIC of antibiotic ([11]; Acinetobacter sp. J2, antibiotic alone, no inhibitor): >22 µg/mL
- MIC of antibiotic [12, 15]: 4 µg/mL
- MIC of antibiotic ([12]; + 102 + sulbactam, 4 mg/L each): 8 µg/mL
- MIC of antibiotic [12, 16]: 32 µg/mL
- MIC of antibiotic [12, 17]: 4 µg/mL
- MIC of antibiotic [12, 18]: 16 µg/mL
- MIC of antibiotic [12, 19]: 8 µg/mL
- MIC of antibiotic [12, 20]: 4 µg/mL
- MIC of antibiotic ([12]; + 323 + sulbactam, 4 mg/L each): 4 µg/mL
- MIC of antibiotic [12, 21]: 4 µg/mL
- MIC of antibiotic ([12]; + 501 4 mg/L): 16 µg/mL
- MIC of antibiotic ([12]; + clavulanate 4 mg/L): 32 µg/mL
- MIC of antibiotic ([12]; antibiotic alone): >32 µg/mL
- MIC of antibiotic [13, 15]: 0.125 µg/mL
- MIC of antibiotic ([13]; + 102 + sulbactam, 4 mg/L each): 2 µg/mL
- MIC of antibiotic [13, 16]: 0.125 µg/mL
- MIC of antibiotic [13, 17]: 0.125 µg/mL
- MIC of antibiotic [13, 18]: 0.125 µg/mL
- MIC of antibiotic [13, 19]: 0.125 µg/mL
- MIC of antibiotic [13, 20]: 0.125 µg/mL
- MIC of antibiotic ([13]; + 323 + sulbactam, 4 mg/L each): 0.125 µg/mL
- MIC of antibiotic [13, 21]: 0.125 µg/mL
- MIC of antibiotic ([13]; + 501 4 mg/L): 0.25 µg/mL
- MIC of antibiotic ([13]; + clavulanate 4 mg/L): 0.5 µg/mL
- MIC of antibiotic ([13]; antibiotic alone): 1 µg/mL
